What was measured:
Surinam grass = test: Test C pre-/postemergence herbicide test; format: in vivo, Urochloa decumbens; conditions: for Plant response rating (0 = no effect, 100 = complete control), Surinam Grass: 125 g ai/ha
Method in brief: (§1)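 Preemergence: seeds planted and treated with compound in non-phytotoxic solvent with surfactant; postemergence: plants at 2 to 18 cm (1- to 4-leaf stage) sprayed likewise. Kept in greenhouse 12 to 14 days, then visually rated against controls, 0 (no effect) to 100 (complete control).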

corn = test: Test C pre-/postemergence herbicide test; format: in vivo, Zea mays; conditions: for Plant response rating (0 = no effect, 100 = complete control), Corn: 125 g ai/ha
Method in brief: as §1

woolly cupgrass = test: Test C pre-/postemergence herbicide test; format: in vivo, Eriochloa villosa; conditions: for Plant response rating (0 = no effect, 100 = complete control), Cupgrass, Woolly: 125 g ai/ha
Method in brief: as §1

johnsongrass = test: Test C pre-/postemergence herbicide test; format: in vivo, Sorghum halepense; conditions: for Plant response rating (0 = no effect, 100 = complete control), Johnsongrass: 125 g ai/ha
Method in brief: as §1

eastern black nightshade = test: Test C pre-/postemergence herbicide test; format: in vivo, Solanum ptycanthum; conditions: for Plant response rating (0 = no effect, 100 = complete control), Nightshade: 125 g ai/ha
Method in brief: as §1

[1] = system: common (oilseed) sunflower; test: Test C pre-/postemergence herbicide test; format: in vivo, Helianthus annuus; conditions: for Plant response rating (0 = no effect, 100 = complete control), Sunflower: 125 g ai/ha
Method in brief: as §1

velvetleaf = test: Test C pre-/postemergence herbicide test; format: in vivo, Abutilon theophrasti; conditions: for Plant response rating (0 = no effect, 100 = complete control), Velvetleaf: 125 g ai/ha
Method in brief: as §1

[2] = system: smallflower umbrella sedge; test: Test C flooded paddy test; format: in vivo, Cyperus difformis
[3] = 62 g ai/ha, preemergence, scale 0 to 100
[4] = 250 g ai/ha, scale 0-100, preemergence
[5] = 500 g ai/ha, scale 0 to 100 (0 no effect, 100 complete control), visual, 12 to 14 days, preemergence

## CCn1nc2c(c1C(=O)Nc1cc(C(=O)N(C)C)ccc1F)CCC2(C)C [Compound 352, N-[5-[(dimethylamino)carbonyl]-2-fluorophenyl]-2-ethyl-2,4,5,6-tetrahydro-6,6-dimethyl-3-cyclopentapyrazolecarboxamide]
Surinam grass; preemergence
  Plant response rating (0 = no effect, 100 = complete control), Surinam Grass: 50
Surinam grass; Urochloa decumbens, pre-emergence, 312 h, 62 g ai/ha, preemergence, scale 0 to 100, read-out: Plant response rating, Surinam Grass
  pest or weed control at 62 g/ha: 10%
Surinam grass; Urochloa decumbens, pre-emergence, 312 h, 250 g ai/ha, scale 0-100, read-out: Plant response rating, Surinam Grass
  pest or weed control at 250 g/ha: 100%
Surinam grass; Urochloa decumbens, pre-emergence, 312 h, 500 g ai/ha, scale 0 to 100 (0 no effect, 100 complete control), visual, 12 to 14 days, read-out: Plant response rating, Surinam Grass
  pest or weed control at 500 g/ha: 100%
corn; preemergence
  Plant response rating (0 = no effect, 100 = complete control), Corn: 15
corn; Zea mays, pre-emergence, 312 h, 62 g ai/ha, preemergence, scale 0 to 100
  Corn plant response rating (crop injury, 0 = no effect, 100 = complete kill) at 62 g/ha: 0%
corn; Zea mays, pre-emergence, 312 h, 250 g ai/ha, scale 0-100
  Corn plant response rating (crop injury, 0 = no effect, 100 = complete kill) at 250 g/ha: 30%
corn; Zea mays, pre-emergence, 312 h, 500 g ai/ha, scale 0 to 100 (0 no effect, 100 complete control), visual, 12 to 14 days
  Corn plant response rating (crop injury, 0 = no effect, 100 = complete kill) at 500 g/ha: 50%
Woolly cupgrass; preemergence
  Plant response rating (0 = no effect, 100 = complete control), Cupgrass, Woolly: 50
Woolly cupgrass; Eriochloa villosa, pre-emergence, 312 h, 62 g ai/ha, preemergence, scale 0 to 100, read-out: Plant response rating, Cupgrass, Woolly
  pest or weed control at 62 g/ha: 5%
Woolly cupgrass; Eriochloa villosa, pre-emergence, 312 h, 250 g ai/ha, scale 0-100, read-out: Plant response rating, Cupgrass, Woolly
  pest or weed control at 250 g/ha: 60%
Woolly cupgrass; Eriochloa villosa, pre-emergence, 312 h, 500 g ai/ha, scale 0 to 100 (0 no effect, 100 complete control), visual, 12 to 14 days, read-out: Plant response rating, Cupgrass, Woolly
  pest or weed control at 500 g/ha: 85%
johnsongrass; preemergence
  Plant response rating (0 = no effect, 100 = complete control), Johnsongrass: 90
johnsongrass; Sorghum halepense, pre-emergence, 62 g ai/ha, preemergence, scale 0 to 100, read-out: Plant response rating, Johnsongrass
  pest or weed control at 62 g/ha: 50%
johnsongrass; Sorghum halepense, pre-emergence, 250 g ai/ha, scale 0-100, read-out: Plant response rating, Johnsongrass
  pest or weed control at 250 g/ha: 90%
johnsongrass; Sorghum halepense, pre-emergence, 500 g ai/ha, scale 0 to 100 (0 no effect, 100 complete control), visual, 12 to 14 days, read-out: Plant response rating, Johnsongrass
  pest or weed control at 500 g/ha: 100%
Eastern black nightshade; preemergence
  Plant response rating (0 = no effect, 100 = complete control), Nightshade: 0
Eastern black nightshade; pre-emergence, 62 g ai/ha, preemergence, scale 0 to 100, read-out: Plant response rating, Nightshade
  pest or weed control at 62 g/ha: 0%
Eastern black nightshade; pre-emergence, 250 g ai/ha, scale 0-100, read-out: Plant response rating, Nightshade
  pest or weed control at 250 g/ha: 50%
Eastern black nightshade; pre-emergence, 500 g ai/ha, scale 0 to 100 (0 no effect, 100 complete control), visual, 12 to 14 days, read-out: Plant response rating, Nightshade
  pest or weed control at 500 g/ha: 100%
[1]; preemergence
  Plant response rating (0 = no effect, 100 = complete control), Sunflower: 0
[1]; Helianthus annuus, pre-emergence, 62 g ai/ha, preemergence, scale 0 to 100, read-out: Plant response rating, Sunflower
  pest or weed control at 62 g/ha: 0%
[1]; Helianthus annuus, pre-emergence, 250 g ai/ha, scale 0-100, read-out: Plant response rating, Sunflower
  pest or weed control at 250 g/ha: 0%
[1]; Helianthus annuus, pre-emergence, 500 g ai/ha, scale 0 to 100 (0 no effect, 100 complete control), visual, 12 to 14 days, read-out: Plant response rating, Sunflower
  pest or weed control at 500 g/ha: 0%
velvetleaf; preemergence
  Plant response rating (0 = no effect, 100 = complete control), Velvetleaf: 5
velvetleaf; Abutilon theophrasti, pre-emergence, 62 g ai/ha, preemergence, scale 0 to 100, read-out: Plant response rating, Velvetleaf
  pest or weed control at 62 g/ha: 0%
velvetleaf; Abutilon theophrasti, pre-emergence, 250 g ai/ha, scale 0-100, read-out: Plant response rating, Velvetleaf
  pest or weed control at 250 g/ha: 70%
velvetleaf; Abutilon theophrasti, pre-emergence, 500 g ai/ha, scale 0 to 100 (0 no effect, 100 complete control), visual, 12 to 14 days, read-out: Plant response rating, Velvetleaf
  pest or weed control at 500 g/ha: 100%
[2]; Cyperus difformis, 62 g ai/ha, scale 0 to 100, read-out: Sedge, Umbrella plant response rating
  pest or weed control at 62 g/ha: 50%
[2]; Cyperus difformis, 125 g ai/ha, scale 0 to 100 (0 no effect, 100 complete control), read-out: Sedge, Umbrella plant response rating
  pest or weed control at 125 g/ha: 75%
[2]; Cyperus difformis, 250 g ai/ha, scale of 0 to 100, 0 is no effect, 100 is complete control, read-out: Sedge, Umbrella plant response rating
  pest or weed control at 250 g/ha: 90%
[2]; Cyperus difformis, 500 g ai/ha, visual rating after 12 to 14 days, scale 0 to 100 (0 no effect, 100 complete control), read-out: Plant response rating, Sedge, Umbrella
  pest or weed control at 500 g/ha: 95%

## CCNC(=O)c1cccc(NC(=O)c2nn(C(C)(C)C)nc2C)c1 [Compound 392]
Surinam grass; [3]
  Plant response rating, Surinam Grass: 50
Surinam grass; preemergence
  Plant response rating (0 = no effect, 100 = complete control), Surinam Grass: 85
Surinam grass; [4]
  Plant response rating, Surinam Grass: 85
Surinam grass; [5]
  Plant response rating, Surinam Grass: 90
corn; [3]
  Plant response rating, Corn: 30
corn; preemergence
  Plant response rating (0 = no effect, 100 = complete control), Corn: 50
corn; [4]
  Plant response rating, Corn: 80
corn; [5]
  Plant response rating, Corn: 90
Woolly cupgrass; [3]
  Plant response rating, Cupgrass, Woolly: 30
Woolly cupgrass; preemergence
  Plant response rating (0 = no effect, 100 = complete control), Cupgrass, Woolly: 40
Woolly cupgrass; [4]
  Plant response rating, Cupgrass, Woolly: 60
Woolly cupgrass; [5]
  Plant response rating, Cupgrass, Woolly: 85
johnsongrass; [3]
  Plant response rating, Johnsongrass: 85
johnsongrass; preemergence
  Plant response rating (0 = no effect, 100 = complete control), Johnsongrass: 100
johnsongrass; [4]
  Plant response rating, Johnsongrass: 100
johnsongrass; [5]
  Plant response rating, Johnsongrass: 100
Eastern black nightshade; [3]
  Plant response rating, Nightshade: 90
Eastern black nightshade; preemergence
  Plant response rating (0 = no effect, 100 = complete control), Nightshade: 95
Eastern black nightshade; [4]
  Plant response rating, Nightshade: 100
Eastern black nightshade; [5]
  Plant response rating, Nightshade: 100
[1]; [3]
  Plant response rating, Sunflower: 10
[1]; preemergence
  Plant response rating (0 = no effect, 100 = complete control), Sunflower: 50
[1]; [5]
  Plant response rating, Sunflower: 100
velvetleaf; [3]
  Plant response rating, Velvetleaf: 70
velvetleaf; preemergence
  Plant response rating (0 = no effect, 100 = complete control), Velvetleaf: 100
velvetleaf; [4]
  Plant response rating, Velvetleaf: 100
velvetleaf; [5]
  Plant response rating, Velvetleaf: 100
[2]; 62 g ai/ha, scale 0 to 100
  Sedge, Umbrella plant response rating: 70
[2]; 125 g ai/ha, scale 0 to 100 (0 no effect, 100 complete control)
  Sedge, Umbrella plant response rating: 75
[2]; 250 g ai/ha, scale of 0 to 100, 0 is no effect, 100 is complete control
  Sedge, Umbrella plant response rating: 85
[2]; 500 g ai/ha, visual rating after 12 to 14 days, scale 0 to 100 (0 no effect, 100 complete control)
  Plant response rating, Sedge, Umbrella: 85

From US20060069132A1, “Azolecarboxamide herbicides” (priority 2004, published 2006)
